Test system: A2058 melanoma cells
Experiment: Morphometry analysis by HoloMonitor M4 holographic microscopy
Type: cell-based, human
Conditions: fold change during treatment normalized to control cells, average ± SD, 50 cells/group, 180 consecutive frames
Experimental: Holographic microscopic measurements were also performed to visualize the morphological changes induced by the conjugates and Dau. This novel technique provided several morphological parameters (e.g., surface area, optical thickness, eccentricity etc.) that allowed understanding of the results of impedance-based adhesion measurement. Holographic images were taken before and after the 3-hour treatment of A2058 cells with the compounds. The change in the morphological parameters shown in Table S1 in Supporting Information File 2 was calculated from a fold change during 3 h long treatment and this value was normalized to that of the control cells. The adhesion inducer effects of Dau and GnRH-III(Dau=Aoa) detected by the impedimetric assay were reflected in the morphometry analysis.
The experimental set up we used for the morphometry analysis can be also found in [6]. The HolomonitorTM M4 microscope (Phase Holographic Imaging AB, Lund, Sweden) was used for imaging and tracking the morphological changes of A2058 cells induced by the conjugates and Dau. This technique is dedicated to analyzing the morphology and movement of adherent cells by recording 3D, holographic phase contrast images and tracking them over a given time period. The principle behind this method is the detection of the phase shift of the probing laser light transmitting or reflecting through a cell sample and comparison to the reference light […]
A2058 cells were seeded (2.5 × 10^5 cells) in a petri dish (diameter: 35 mm) and allowed to adhere for 24 h. After automatic calibration of the background and microscope objective (20×), one field of each sample was focused on by the digital autofocus feature. The cells were then treated with the test compounds at the final concentrations of 10−7–10−5 mol/L, or with an equivalent volume of culture medium, and captured every 30 sec for 2 h.
For the evaluation, ca. 50 cells per time-lapse sequence were identified and selected by the minimum error histogram-based threshold algorithm of the HStudioTM M4 2.7.1 software (Phase Holographic Imaging AB, Lund, Sweden). The morphological changes were automatically analyzed over time by selecting and tracking individual cells.
For the morphometry analysis, different basic and complex morphological parameters were […]
The (i) area (surface area of the image occupied by a cell) and (ii) thickness (average spatial cell thickness) were grouped as basic metrics, while the more complex parameters relating to cell shape were: (iii) the eccentricity (how elongated a cell is comparing to a circle), (iv) the hull convexity (how different the 3D shape of a cell is compared to a perfect convex shape) and (v) the irregularity (how different the circumference of a cell is compared to the circumference of a perfect circle).
Table S1: Morphological changes of A2058 melanoma cells induced by the conjugates Compounds/ Area Thickness Eccentricity Hull convexity Irregularity concentrations [%] [%] [%] [%] [%]
[4Lys(Ac)] -GnRH-III(Dau=Aoa )
[4Lys(Bu)]-GnRH-III(Dau=Aoa)
Area (μm2) – surface area of the image that is occupied by the cell; Thickness (μm) – average thickness of the cell; Eccentricity – how elongated a cell comparing to a circle shape; Hull convexity – how different the 3D shape of a cell from the perfect convex shape; Irregularity – how different the circumference of a cell from the circumference of a perfect circle
Data represent averages and ±SD values calculated for 50 cells/group in 180 consecutive frames.
The presented data were calculated by HoloStudioTM M4 2.5 and analyzed by Origin Pro 2016. The levels of significance are shown as follows: *: p<0.05; **: p<0.01; ***: p<0.001

Compound `COc1cccc2c1C(=O)c1c(O)c3c(c(O)c1C2=O)C[C@@](O)(C(C)=O)C[C@@H]3O[C@H]1C[C@H](N)[C@H](O)[C@H](C)O1` [daunorubicin] has an Area (10^-5 M) of 99.1 ± 4.1%, an Eccentricity (10^-5 M) of 104.4 ± 1.84% and a Hull convexity (10^-5 M) of 101.2 ± 0.29%. It also gave an Irregularity (10^-5 M) of 102.6 ± 2.54%, a Thickness (10^-5 M) of 104.5 ± 2.12% and an Eccentricity (10^-6 M) of 96.6 ± 1.83%. It also gave a Hull convexity (10^-6 M) of 100.1 ± 0.23%, a Thickness (10^-6 M) of 95.4 ± 1.87% and an Area (10^-6 M, listed as Dau) of 124.1%. The Area (10^-7 M) was 94.5 ± 3.72%, the Eccentricity (10^-7 M) was 95.2 ± 2.25% and the Hull convexity (10^-7 M) was 103.4 ± 0.29%. It also gave an Irregularity (10^-7 M) of 94.5 ± 2.41% and a Thickness (10^-7 M) of 101.8 ± 1.95%.
